Values belong to the molecule of their own block, whether it stands above or below them.
Experiments:
[1] = biological target: T1, glutamine transporter SLC1A5 (Mus musculus, UniProt P51912); test: [U-14C]-glutamine uptake in C2C12 cells; assay type: cell-based, murine; set-up: endogenous in cells; host or cells: C2C12 myoblast cell line
T1 sequence (P51912 1-553): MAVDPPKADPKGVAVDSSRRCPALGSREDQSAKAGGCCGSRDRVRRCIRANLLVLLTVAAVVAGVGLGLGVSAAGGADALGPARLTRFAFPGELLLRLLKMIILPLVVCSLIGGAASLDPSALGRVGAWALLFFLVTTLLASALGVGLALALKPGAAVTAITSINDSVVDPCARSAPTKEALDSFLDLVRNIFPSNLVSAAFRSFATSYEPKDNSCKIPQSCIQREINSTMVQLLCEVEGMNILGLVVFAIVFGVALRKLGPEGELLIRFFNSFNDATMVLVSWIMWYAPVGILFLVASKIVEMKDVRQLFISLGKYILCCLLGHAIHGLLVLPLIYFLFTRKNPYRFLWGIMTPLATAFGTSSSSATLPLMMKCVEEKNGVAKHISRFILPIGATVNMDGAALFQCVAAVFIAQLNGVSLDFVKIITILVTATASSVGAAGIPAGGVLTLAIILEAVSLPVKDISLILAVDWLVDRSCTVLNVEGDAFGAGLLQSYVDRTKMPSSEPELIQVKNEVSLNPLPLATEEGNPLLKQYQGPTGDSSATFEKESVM
Procedure: e: [U-^14C]-glutamine uptake in SLC1A5-deficient C2C12 cells obtained by co-expressing the Cas9 along with a gRNA targeting the Slc1a5 locus. Wild type cells (Ctrl) and a non-targeting scrambled (Scrl) gRNA were used as negative controls. C2C12 cells treated with SLC1A5 inhibitor gamma-L-Glutamyl-p-Nitroanilide (GPNA) was used as a positive control.
BMDMs were incubated in M199 medium (Gibco) supplemented with 10% FBS and 0.5 μCi/ml [U-^14C]-glutamine for 30 min at 37° C. Cells were lysed in 1N NaOH and the radioactivity was measured by liquid scintillation counting.

[2] = biological target: T1, glutamine transporter SLC1A5; test: CTX muscle injury with SLC1A5 inhibition by GPNA, proliferating muscle precursors; assay type: in vivo, mice; set-up: from tissue; host or cells: living CTRL and Glud1 ΔMo mice (C57BL/6); read-out in tibialis anterior muscle; conditions: Glud1ΔMo TA muscles 1 day after CTX injury; GPNA 3 times per day, oral, vs vehicle
Procedure: m: Quantification of proliferating muscle precursors on sections of TA muscles 1 day after CTX injury, stained for PHH3 and laminin. CTRL and Glud1^ΔM0 mice were treated 3 times per day with the SLC1A5 inhibitor GPNA, or vehicle as control. Number of samples included in the analysis: CTRL with vehicle, n=5; Glud1^ΔMo with vehicle, n=5; CTRL with GPNA, n=8; Glud1^ΔMo with GPNA, n=8.
(§1) Mice were anaesthetized with isoflurane and 50 μl of 10 μM CTX was injected in the tibialis anterior (TA) muscle. Muscles were harvested for analysis at different time points post-injury (day 1 and day 6). In vivo GLUD1 inhibition was achieved by bi-daily gavage of R162 (Focus Biomolecules) at 0.6 mg/mouse. Mice were pretreated 1 day before CTX injection or ischemic ligation. Afterwards, mice continued to receive daily treatment until their sacrifice. To inhibit SLC1A5, mice were treated 3 times per day with 500 mM GPNA (Sigma-Aldrich). […]
(§2) 7 μm-thick cryosections were obtained by using a Leica cryostat from frozen muscles collected in optimal cutting temperature compound (OCT). […] Necrotic and regenerating muscle fibers, were detected by H&E staining as previously described (Takeda et al. 2011, Nature 479:122-126) and analysed by ImageJ software. […] Whenever sections were stained in fluorescence, ProLong Gold mounting medium with or without DAPI (Invitrogen) was used. […]

GLUD1 [3] = conditions: cited from earlier work
GLUD1 [4] = biological target: T2, GLUD1 (Mus musculus, UniProt P26443); test: Hindlimb ischemia (femoral artery ligation), R162 by bi-daily gavage; assay type: in vivo; conditions: crural muscles 14 days after ligation; wild type mice; bi-daily R162 vs vehicle
T2 construct: from tissue; host or cells: living C57BL/6 wild-type mice; systemic exposure, read-out in tibialis anterior / crural muscle
Procedure: h-j: Quantification of the necrotic area (h) and intact differentiated fibers (i) on H&E-stained sections (j) from crural muscles 14 days after ligation. Wild type mice were bi-daily treated with R162, or vehicle as control.
k-l: Quantification (k) and representative images (l) of F4/80^+ area in crural muscles, 14 days after ligation. Wild type mice were bi-daily treated with R162, or vehicle as control.
as §1, §2

GLUD1 [5] = biological target: T2, GLUD1; test: Cardiotoxin (CTX) muscle injury of tibialis anterior, R162 by bi-daily gavage; assay type: in vivo; conditions: wild type mice
From the text: a-c: Quantification of regenerating fibers (a) and intact differentiated fibers (b) on H&E-stained sections (c) from TA muscles 6 days after CTX injury. Wild type mice were bi-daily treated with R162, or vehicle as control.
d-e: Quantification (d) and representative images (e) of F4/80^+ area in TA muscles, 6 days after CTX injury. Wild type mice were bi-daily treated with R162, or vehicle as control.
f-g: Quantification (f) and representative images (g) of proliferating muscle precursors on sections of TA muscles 1 day after CTX injury, stained for PHH3 and laminin. Wild type mice were bi-daily treated with R162, or vehicle as control.
Mice were anaesthetized with isoflurane and 50 μl of 10 μM CTX was injected in the tibialis anterior (TA) muscle. Muscles were harvested for analysis at different time points post-injury (day 1 and day 6). In vivo GLUD1 inhibition was achieved by bi-daily gavage of R162 (Focus Biomolecules) at 0.6 mg/mouse. Mice were pretreated 1 day before CTX injection or ischemic ligation. Afterwards, mice continued to receive daily treatment until their sacrifice. To inhibit SLC1A5, mice were treated 3 times per day with 500 mM GPNA (Sigma-Aldrich). CTX was injected 1 hour after the first gavage, and mice were sacrificed 24 hours afterwards.
7 μm-thick cryosections were obtained by using a Leica cryostat from frozen muscles collected in optimal cutting temperature compound (OCT). Alternatively, tibialis anterior and calf muscles (gastrocnemius) were fixed in 2% paraformaldehyde, dehydrated, embedded in paraffin, and sectioned at 7 μm thickness. Necrotic and regenerating muscle fibers, were detected by H&E staining as previously described (Takeda et al. 2011, Nature 479:122-126) and analysed by ImageJ software. After deparaffinization and rehydration, muscle sections were permeabilized by a solution containing 1% BSA, 0.2% Triton-X in PBS 30 min at RT and blocked with Donkey serum (Sigma)1 h at RT. […] Whenever sections were stained in fluorescence, ProLong Gold mounting medium with or without DAPI (Invitrogen) was used. […]

[6] = biological target: glutamine synthetase (GS) (Mus musculus, UniProt P15105); conditions: GLUD1-deficient BMDMs, glutamine deprivation, 1 mM MSO for 48 hours
glutamine synthetase (GS), sequence (P15105 2-373 limits assumed): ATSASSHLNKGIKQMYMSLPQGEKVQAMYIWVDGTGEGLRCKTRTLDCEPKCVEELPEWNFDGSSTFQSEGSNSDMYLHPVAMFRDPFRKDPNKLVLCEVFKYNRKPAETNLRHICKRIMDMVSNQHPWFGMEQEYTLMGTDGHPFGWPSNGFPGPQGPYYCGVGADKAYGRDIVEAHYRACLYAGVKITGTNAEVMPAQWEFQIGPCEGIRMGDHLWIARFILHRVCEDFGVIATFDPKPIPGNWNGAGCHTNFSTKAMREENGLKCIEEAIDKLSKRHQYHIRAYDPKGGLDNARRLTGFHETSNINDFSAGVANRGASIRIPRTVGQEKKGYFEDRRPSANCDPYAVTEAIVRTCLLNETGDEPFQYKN
Procedure: o: Quantification (by GC-MS) of extracellular glutamine content from BMDMs under glutamine deprivation treated with and without MSO.
Briefly, bone marrow cells (1.6×10^6 cells/ml) were cultured in a volume of 6 ml in a 10 cm Petri dish in DMEM supplemented with 20% FBS and 30% L929 conditioned medium as a source of M-CSF. After 3 days of culture, an additional 3 ml of differentiation medium was added. At day 7, macrophages were harvested with ice cold Ca2^+ and Mg2^+-free PBS. The cells obtained were uniformly macrophages as assessed by FACS, using the pan-macrophage marker F4/80.
For mass spectrometry analysis of glutamate and glutamine, 2×10^6 cell pellets were washed twice in PBS and extracted in 500 μl of 80% methanol (80-20, methanol-water). Upon extraction, samples were centrifuged at 20.000×g for 15 min and the supernatant was dried using a vacuum centrifuge. Twenty-five μl of a 2% methoxyamine hydrochloride solution (20 mg dissolved in 1 ml pyridine) were added to the dried pellet and the tubes were then placed at 37° C. for 90 min. […] The mass spectrometer operated in SIM mode, glutamine and glutamate were determined from the m/z 341.2 and 342.2 respectively. For the quantification we used the Agilent Masshunter Quan tool.

T2 sequence (P26443 54-558): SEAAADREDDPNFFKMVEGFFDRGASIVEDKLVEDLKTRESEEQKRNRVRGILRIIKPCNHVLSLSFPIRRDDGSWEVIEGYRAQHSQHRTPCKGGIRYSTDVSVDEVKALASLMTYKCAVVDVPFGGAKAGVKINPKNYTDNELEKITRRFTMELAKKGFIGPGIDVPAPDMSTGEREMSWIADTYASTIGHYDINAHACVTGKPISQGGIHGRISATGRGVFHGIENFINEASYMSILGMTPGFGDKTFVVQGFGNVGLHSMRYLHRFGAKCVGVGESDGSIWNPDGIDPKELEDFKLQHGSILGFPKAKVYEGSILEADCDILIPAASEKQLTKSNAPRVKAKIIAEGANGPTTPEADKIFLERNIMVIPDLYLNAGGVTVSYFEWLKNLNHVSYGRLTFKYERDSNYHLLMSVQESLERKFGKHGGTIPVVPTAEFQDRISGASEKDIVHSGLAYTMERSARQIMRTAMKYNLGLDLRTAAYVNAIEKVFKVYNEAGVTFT

block of glutamine uptake [1]: 75%
Structure (SMILES): N[C@@H](CCC(=O)Nc1ccc([N+](=O)[O-])cc1)C(=O)O [GPNA, gamma-L-Glutamyl-p-Nitroanilide]
abundance of proliferating myogenic precursors (PHH3, laminin) [2]: abolished the abundance of proliferating myogenic precursors

Structure (SMILES): C=CCc1ccc2c(c1O)C(=O)c1ccccc1C2=O [R162, 2-allyl-1-hydroxy-9,10-anthraquinone]
effect on tumor growth (GLUD1 [3]; Jin et al. 2015): therapeutic effect on tumor growth | safety of use (GLUD1 [3]; mouse models of cancer therapy, Palmieri et al. 2017): safely used in mouse models of cancer therapy | inflammatory response (F4/80+ area) (GLUD1 [4]): resolution of the inflammatory response | repair of the necrotic damage (necrotic area and intact differentiated fibers on H&E-stained sections) (GLUD1 [4]): improved repair of the necrotic damage | increase in the number of PHH3+ cells (proliferating muscle precursors) upon damage (GLUD1 [5]; TA muscles 1 day after CTX injury, bi-daily oral gavage of R162 vs vehicle): 60% | quality of the muscle (regenerating fibers and intact differentiated fibers on H&E-stained sections) (GLUD1 [5]; TA muscles 6 days after CTX injury, bi-daily oral gavage of R162 0.6 mg/mouse vs vehicle): strongly improved the quality of the muscle | inflammation (F4/80+ area) (GLUD1 [5]; TA muscles 6 days after CTX injury, bi-daily oral gavage of R162 vs vehicle): reduced inflammation

Structure (SMILES): CS(=N)(=O)CC[C@H](N)C(=O)O (stereo partly drawn) [MSO, L-methionine-SR-sulfoximine]
extracellular glutamine production [6]: rescued back to the CTRL levels
